Measurements taken from patent US20020128268A1, “Use of 2-hydrazino-1,3-thiazoles as antioxidants” (priority 2000, published 2002).

How the values were obtained:
[1] = Rancimat accelerated autooxidation of lipids by air, soyabean oil; conditions: antioxidative index = IP(with test solution)/IP(control sample)
Method: (§1) The activity of the exemplary compounds as antioxidants was compared with that of conventional antioxidants. The accelerated autooxidation of lipids by air with or without antioxidant, as measured using the Rancimat appliance (Rancimat is a registered trademark belonging to Metrohm AG, Herisau, Switzerland) was used as the test system. The exemplary compounds, Vitamin C, α-tocopherol and dibutyihydroxytoluene were dissolved in methanol or acetone, and 100 μl of the respective test solution were added to a previously prepared oil sample weighing 3 g. Solvent only was added to a control sample. A constant, dry stream of air (20 I/h) was blown through the heated oil sample containing the test solution, and the volatile oxidation products (principally short-chain fatty acids such as formic and acetic acid) were collected in a recipient vessel containing water. The conductivity of this aqueous solution was measured and documented continuously. In this connection, the oxidation of (unsaturated) fats proceeds only very slowly for a while and then suddenly increases rapidly. The time which elapses until the increase is termed the induction period (IP). The antioxidative index (AOI) was obtained using the following equation: AOI=IP(with test solution)/IP(control sample). The results for the experiments in soyabean oil at 100° C. and, at 80° C., in squalene, which was purified on alumina type N and stabilized with 1 ppm α-tocopherol, are shown in Table 6: […]

[2] = DPPH (1,1-diphenyl-2-picryl-hydrazyl) test for eliminating free radicals; format: biochemical; conditions: effective relative concentration c(test compound)/c(DPPH) at which the DPPH free radical was 50% eliminated; methanol, absorption at 515 nm
Method: The activity of the exemplary compounds as free radical-capturing agents was compared with that of conventional free radical-capturing agents. In this connection, use was made of the DPPH (1,1-diphenyl-2-picryl-hydrazyl) test for eliminating free radicals.
DPPH was dissolved in methanol to give a concentration of 100 μmol/l. A series of dilutions of the exemplary compounds, Vitamin C, α-tocopherol and dibutylhydroxytoluene were prepared in methanol. Methanol served as the control. 2500 μl of the DPPH solution were mixed with 500 μl of each test solution and the decrease in the absorption at 515 nm was read until the decrease was less than 2% per hour. The activity of the test substances as free radical-capturing agents was calculated using the following equation:
Activity as free radical-capturing agent (%)=100—(absorption of the test compounds)/(absorption of the control)×100.
For each test compound, the effective relative concentration EC50 (based on the concentration of DPPH which was initially present, EC=c (test compound)/c(DPPH)) of a test compound, i.e. at which the DPPH free radical was 50% eliminated, was calculated from the activity as a free radical-capturing agent (%) in a series of dilutions of test compounds.

[3] = Rancimat accelerated autooxidation of lipids by air, squalene; conditions: antioxidative index = IP(with test solution)/IP(control sample), squalene purified on alumina type N and stabilized with 1 ppm α-tocopherol
Method: as §1

Compound | AOl in Soyabean oil at 100° C. containing 0.05% test substance [1] | EC50/ (mol/mol) [2] | AOl in squalene at 80° C. containing 0.005% test substance [3]
O=C1O[C@H]([C@@H](O)CO)C(O)=C1O [Vitamin C, reference compound] | 1.2 | 0.27 mol/mol | 0.7
NNc1nc2ccccc2s1 [2-Hydrazino-1,3-benzothiazole] | 17 | 0.15 mol/mol | 97
NNc1nnc(-c2ccc(F)cc2)s1 [2-Hydrazino-5-(4-fluorophenyl)-1,3,4-thiadiazole] | 15 | 0.14 mol/mol | 38
COc1cc2nc(NN)sc2cc1OC [5,6-Dimethoxy-2-hydrazino-1,3-benzothiazole] | 4.1 | 0.12 mol/mol | 24
Cc1ccc2nc(NN)sc2c1 [6-Methyl-2-hydrazino-1,3-benzothiazole] | 2.4 | 0.28 mol/mol | 67
Cc1cc(C(C)(C)C)c(O)c(C(C)(C)C)c1 [Dibutylhydroxytoluene, reference compound] | 4.8 | 0.24 mol/mol | 38
NNc1nc2cc(S(=O)(=O)O)ccc2s1 [2-Hydrazino-1,3-benzothiazole-5-sulfonic acid] | – | 0.17 mol/mol | –
NNc1nc2cccnc2s1 [2-Hydrazino-thiazolo-[5,4-b]pyridine] | – | 0.10 mol/mol | 60
CC(C)(C)c1ccc2nc(NN)sc2c1 [6-tert.-Butyl-2-hydrazino-1,3-benzothiazole] | 6 | 0.15 mol/mol | 14
Cc1c(C)c2c(c(C)c1O)CC[C@@](C)(CCC[C@H](C)CCC[C@H](C)CCCC(C)C)O2 [α-Tocopherol, reference compound] | 5.1 | 0.25 mol/mol | 39
NNc1nc(-c2ccccc2)cs1 [2-Hydrazino-4-phenyl-1,3-thiazole] | 8.5 | 0.13 mol/mol | 13
COc1ccc2nc(NN)sc2c1 [6-Methoxy-2-hydrazino-1,3-benzothiazole] | 24 | – | 23
